Data from ChEMBL document CHEMBL3991601, “The target landscape of clinical kinase drugs” (Science, 2017).
The source made the active and inactive calls.

Assays:
[1] = target: T1, Bone morphogenetic protein receptor type-2 (Homo sapiens, UniProt Q13873)
T1 sequence (Q13873 whole entry): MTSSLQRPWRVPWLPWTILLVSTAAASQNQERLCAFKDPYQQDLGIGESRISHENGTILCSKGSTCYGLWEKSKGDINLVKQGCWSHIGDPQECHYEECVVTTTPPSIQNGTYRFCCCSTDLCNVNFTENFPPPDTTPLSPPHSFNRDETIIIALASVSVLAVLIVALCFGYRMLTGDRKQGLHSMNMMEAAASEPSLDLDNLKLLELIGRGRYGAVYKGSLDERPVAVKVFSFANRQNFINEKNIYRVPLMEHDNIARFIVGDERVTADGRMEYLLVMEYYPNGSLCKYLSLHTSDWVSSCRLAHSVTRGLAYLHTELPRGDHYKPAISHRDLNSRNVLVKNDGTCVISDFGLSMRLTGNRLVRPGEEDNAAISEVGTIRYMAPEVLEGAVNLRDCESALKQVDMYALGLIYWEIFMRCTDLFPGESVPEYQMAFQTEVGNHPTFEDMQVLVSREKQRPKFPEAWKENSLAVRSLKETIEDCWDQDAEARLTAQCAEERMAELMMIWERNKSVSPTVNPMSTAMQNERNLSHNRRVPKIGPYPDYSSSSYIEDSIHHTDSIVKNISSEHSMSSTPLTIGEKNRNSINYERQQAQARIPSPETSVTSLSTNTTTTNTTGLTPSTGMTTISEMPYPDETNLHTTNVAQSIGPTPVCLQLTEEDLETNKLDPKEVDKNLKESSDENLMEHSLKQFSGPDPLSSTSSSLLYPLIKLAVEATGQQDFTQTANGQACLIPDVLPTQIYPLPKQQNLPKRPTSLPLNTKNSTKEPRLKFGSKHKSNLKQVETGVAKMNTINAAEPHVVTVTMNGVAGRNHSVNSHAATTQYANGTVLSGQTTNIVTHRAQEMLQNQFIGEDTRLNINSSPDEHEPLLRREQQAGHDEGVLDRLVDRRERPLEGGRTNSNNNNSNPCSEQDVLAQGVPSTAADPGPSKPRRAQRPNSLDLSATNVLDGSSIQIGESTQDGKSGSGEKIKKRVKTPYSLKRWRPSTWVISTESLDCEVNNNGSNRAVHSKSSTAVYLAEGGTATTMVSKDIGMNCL

[2] = target: 26S proteasome regulatory subunit 6B (Homo sapiens, UniProt P43686)
Chain of 26S proteasome regulatory subunit 6B (P43686 whole entry): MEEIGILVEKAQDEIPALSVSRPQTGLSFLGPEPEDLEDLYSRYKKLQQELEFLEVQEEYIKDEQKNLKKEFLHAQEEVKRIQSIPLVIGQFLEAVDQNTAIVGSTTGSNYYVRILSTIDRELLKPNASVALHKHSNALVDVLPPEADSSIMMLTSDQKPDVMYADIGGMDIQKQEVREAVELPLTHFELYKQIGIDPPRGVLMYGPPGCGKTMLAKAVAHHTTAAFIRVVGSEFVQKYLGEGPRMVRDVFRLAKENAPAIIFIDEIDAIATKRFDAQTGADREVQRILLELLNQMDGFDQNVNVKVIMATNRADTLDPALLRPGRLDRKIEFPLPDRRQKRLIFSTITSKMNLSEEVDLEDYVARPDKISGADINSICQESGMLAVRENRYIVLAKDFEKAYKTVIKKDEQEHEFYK

[3] = target: U5 small nuclear ribonucleoprotein 200 kDa helicase (Homo sapiens, UniProt O75643)
Chain of U5 small nuclear ribonucleoprotein 200 kDa helicase (O75643 whole entry): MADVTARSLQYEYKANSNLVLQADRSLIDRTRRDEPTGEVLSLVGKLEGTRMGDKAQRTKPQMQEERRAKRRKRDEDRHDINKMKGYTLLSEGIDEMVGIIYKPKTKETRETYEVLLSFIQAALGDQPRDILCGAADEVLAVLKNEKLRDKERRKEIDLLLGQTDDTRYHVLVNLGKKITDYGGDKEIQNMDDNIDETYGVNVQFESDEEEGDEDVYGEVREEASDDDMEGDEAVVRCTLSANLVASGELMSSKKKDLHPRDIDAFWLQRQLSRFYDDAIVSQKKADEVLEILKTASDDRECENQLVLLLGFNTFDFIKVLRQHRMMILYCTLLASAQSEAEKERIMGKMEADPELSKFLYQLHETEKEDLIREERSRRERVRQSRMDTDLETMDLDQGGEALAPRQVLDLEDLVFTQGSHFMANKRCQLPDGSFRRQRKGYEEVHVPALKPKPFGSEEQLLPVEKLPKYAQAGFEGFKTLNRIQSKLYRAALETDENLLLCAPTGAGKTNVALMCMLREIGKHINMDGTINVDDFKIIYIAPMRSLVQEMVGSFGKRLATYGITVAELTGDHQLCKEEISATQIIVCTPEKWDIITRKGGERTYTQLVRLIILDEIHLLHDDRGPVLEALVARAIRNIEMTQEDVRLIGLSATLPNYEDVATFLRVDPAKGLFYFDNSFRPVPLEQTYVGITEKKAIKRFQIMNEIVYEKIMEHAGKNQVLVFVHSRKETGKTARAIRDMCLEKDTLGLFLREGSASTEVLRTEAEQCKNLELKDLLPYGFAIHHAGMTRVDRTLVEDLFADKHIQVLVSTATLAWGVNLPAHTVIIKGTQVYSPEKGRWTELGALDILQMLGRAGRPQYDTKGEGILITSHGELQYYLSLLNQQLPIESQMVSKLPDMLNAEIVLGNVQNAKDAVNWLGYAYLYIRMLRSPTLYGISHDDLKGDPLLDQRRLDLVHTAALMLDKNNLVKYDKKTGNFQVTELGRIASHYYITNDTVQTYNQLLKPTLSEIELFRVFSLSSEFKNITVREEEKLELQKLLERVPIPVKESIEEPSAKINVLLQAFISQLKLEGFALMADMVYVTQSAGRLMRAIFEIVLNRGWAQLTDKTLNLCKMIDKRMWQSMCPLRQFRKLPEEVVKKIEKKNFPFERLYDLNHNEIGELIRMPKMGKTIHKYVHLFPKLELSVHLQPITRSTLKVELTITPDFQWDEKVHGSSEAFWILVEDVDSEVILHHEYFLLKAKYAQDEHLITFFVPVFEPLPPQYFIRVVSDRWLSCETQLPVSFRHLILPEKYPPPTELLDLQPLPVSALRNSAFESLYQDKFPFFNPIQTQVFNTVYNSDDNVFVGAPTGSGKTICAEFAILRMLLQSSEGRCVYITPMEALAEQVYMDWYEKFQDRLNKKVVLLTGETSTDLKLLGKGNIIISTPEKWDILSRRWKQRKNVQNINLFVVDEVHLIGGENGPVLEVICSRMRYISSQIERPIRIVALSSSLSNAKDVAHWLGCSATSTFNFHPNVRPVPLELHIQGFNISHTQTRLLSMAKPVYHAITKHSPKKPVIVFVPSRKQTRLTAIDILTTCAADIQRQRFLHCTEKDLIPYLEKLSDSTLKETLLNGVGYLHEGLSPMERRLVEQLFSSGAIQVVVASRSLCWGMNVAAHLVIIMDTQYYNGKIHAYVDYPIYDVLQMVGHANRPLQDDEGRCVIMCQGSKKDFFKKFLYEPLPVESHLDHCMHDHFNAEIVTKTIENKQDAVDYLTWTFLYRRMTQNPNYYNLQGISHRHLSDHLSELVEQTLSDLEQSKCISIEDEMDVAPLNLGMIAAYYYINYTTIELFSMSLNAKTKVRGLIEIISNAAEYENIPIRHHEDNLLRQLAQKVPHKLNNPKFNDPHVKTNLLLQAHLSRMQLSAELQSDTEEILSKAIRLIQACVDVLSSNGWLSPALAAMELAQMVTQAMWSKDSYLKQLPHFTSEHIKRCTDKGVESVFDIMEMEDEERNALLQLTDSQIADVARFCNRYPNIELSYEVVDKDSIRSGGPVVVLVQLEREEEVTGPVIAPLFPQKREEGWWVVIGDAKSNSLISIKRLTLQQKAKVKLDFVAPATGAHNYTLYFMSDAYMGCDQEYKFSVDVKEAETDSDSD

[4] = target: T2, Glycogen phosphorylase, brain form (Homo sapiens, UniProt P11216)
T2 sequence (P11216 whole entry): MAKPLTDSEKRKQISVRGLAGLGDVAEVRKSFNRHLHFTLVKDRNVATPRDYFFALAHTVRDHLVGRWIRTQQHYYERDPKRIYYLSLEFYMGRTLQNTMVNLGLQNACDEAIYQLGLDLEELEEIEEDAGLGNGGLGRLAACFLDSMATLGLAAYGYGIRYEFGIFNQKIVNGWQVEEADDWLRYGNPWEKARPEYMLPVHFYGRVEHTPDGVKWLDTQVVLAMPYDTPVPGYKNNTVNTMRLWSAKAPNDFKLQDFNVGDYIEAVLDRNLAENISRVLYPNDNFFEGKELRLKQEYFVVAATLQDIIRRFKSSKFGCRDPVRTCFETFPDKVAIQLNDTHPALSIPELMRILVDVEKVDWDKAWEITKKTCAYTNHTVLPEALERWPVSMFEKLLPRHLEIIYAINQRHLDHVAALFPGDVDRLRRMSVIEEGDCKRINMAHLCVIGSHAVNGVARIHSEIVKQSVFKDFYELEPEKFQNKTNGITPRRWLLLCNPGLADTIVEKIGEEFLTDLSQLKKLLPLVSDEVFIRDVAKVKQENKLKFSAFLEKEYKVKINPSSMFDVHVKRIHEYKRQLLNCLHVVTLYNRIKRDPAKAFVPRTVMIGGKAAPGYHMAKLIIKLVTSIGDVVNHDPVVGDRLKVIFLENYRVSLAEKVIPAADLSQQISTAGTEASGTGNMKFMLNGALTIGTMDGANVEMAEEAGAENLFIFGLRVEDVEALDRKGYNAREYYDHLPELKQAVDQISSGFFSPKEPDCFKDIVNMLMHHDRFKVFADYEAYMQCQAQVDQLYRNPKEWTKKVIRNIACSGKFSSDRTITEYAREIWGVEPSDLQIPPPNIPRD

[5] = target: T3, ADP/ATP translocase 2 (Homo sapiens, UniProt P05141)
T3 sequence (P05141 whole entry): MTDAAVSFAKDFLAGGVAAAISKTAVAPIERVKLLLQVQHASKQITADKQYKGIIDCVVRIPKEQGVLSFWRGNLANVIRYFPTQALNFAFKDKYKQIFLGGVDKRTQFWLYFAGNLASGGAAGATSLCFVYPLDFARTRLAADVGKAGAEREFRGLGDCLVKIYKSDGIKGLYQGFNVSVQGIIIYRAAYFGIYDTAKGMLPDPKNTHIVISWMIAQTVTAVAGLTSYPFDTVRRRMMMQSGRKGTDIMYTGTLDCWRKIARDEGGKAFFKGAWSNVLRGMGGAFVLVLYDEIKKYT

[6] = target: Chromodomain-helicase-DNA-binding protein 4 (Homo sapiens, UniProt Q14839)
[7] = target: Mitogen-activated protein kinase 10 (Homo sapiens, UniProt P53779)
Chain of Mitogen-activated protein kinase 10 (P53779 whole entry): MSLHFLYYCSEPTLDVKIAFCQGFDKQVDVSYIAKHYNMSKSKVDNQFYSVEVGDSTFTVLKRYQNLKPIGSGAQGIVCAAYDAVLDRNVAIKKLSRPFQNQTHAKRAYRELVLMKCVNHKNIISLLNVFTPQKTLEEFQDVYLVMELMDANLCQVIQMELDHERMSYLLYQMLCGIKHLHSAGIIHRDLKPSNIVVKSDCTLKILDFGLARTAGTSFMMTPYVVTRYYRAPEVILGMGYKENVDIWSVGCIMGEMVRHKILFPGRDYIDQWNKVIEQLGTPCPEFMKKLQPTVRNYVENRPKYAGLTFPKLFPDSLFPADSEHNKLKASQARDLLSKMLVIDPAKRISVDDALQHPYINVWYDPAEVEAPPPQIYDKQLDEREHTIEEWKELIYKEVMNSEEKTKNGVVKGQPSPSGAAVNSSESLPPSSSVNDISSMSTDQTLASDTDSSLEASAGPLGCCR

[8] = target: Activated CDC42 kinase 1 (Homo sapiens, UniProt Q07912)
Chain of Activated CDC42 kinase 1 (Q07912 whole entry): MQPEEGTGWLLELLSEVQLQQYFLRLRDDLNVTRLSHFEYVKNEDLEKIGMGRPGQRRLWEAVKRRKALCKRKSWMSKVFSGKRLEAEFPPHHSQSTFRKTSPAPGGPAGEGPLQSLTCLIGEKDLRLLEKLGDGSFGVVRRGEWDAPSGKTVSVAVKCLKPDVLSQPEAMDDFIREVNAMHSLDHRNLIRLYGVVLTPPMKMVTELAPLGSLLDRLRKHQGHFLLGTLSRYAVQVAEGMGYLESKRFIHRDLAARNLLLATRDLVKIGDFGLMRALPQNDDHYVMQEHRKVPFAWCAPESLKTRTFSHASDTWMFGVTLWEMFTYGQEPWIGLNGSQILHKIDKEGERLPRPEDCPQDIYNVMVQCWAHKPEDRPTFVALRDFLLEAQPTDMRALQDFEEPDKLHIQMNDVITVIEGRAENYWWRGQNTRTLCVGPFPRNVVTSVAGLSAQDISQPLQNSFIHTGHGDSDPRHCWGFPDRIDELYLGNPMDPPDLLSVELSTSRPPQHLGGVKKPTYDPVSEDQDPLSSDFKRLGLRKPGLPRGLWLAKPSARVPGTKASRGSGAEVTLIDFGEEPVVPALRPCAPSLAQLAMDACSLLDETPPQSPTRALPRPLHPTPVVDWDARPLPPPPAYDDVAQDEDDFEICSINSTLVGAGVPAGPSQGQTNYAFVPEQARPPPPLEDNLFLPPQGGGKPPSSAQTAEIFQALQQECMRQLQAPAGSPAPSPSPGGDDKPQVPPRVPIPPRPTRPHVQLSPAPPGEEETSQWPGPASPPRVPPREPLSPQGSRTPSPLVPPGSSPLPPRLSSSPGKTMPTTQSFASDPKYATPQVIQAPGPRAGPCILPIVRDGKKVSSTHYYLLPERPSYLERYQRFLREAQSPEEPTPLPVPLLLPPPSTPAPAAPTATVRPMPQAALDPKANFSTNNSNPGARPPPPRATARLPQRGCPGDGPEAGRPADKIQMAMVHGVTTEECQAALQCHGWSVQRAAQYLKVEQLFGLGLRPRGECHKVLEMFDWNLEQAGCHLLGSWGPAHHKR
Further: in the data inactive means no Kd found up to 30 µM.

| Compound | Kd [1] | Kd [2] | Kd [3] | Kd [4] | Kd [5] | Kd [6] | Kd [7] | Kd [8] |
| --- | --- | --- | --- | --- | --- | --- | --- | --- |
| CN1CC[C@@H](c2c(O)cc(O)c3c(=O)cc(-c4ccccc4Cl)oc23)[C@@H]1CO | > 30 µM (inactive) | > 30 µM (inactive) | > 30 µM (inactive) | > 30 µM (inactive) | > 30 µM (inactive) | > 30 µM (inactive) | > 30 µM (inactive) | > 30 µM (inactive) |
| O=c1sn(-c2cccc3ccccc23)c(=O)n1Cc1ccccc1 [TIDEGLUSIB] | > 30 µM (inactive) | > 30 µM (inactive) | > 30 µM (inactive) | > 30 µM (inactive) | > 30 µM (inactive) | > 30 µM (inactive) | > 30 µM (inactive) | > 30 µM (inactive) |
| COc1cc(OC)c(/C=C/S(=O)(=O)Cc2ccc(OC)c(NCC(=O)O)c2)c(OC)c1 [RIGOSERTIB] | > 30 µM (inactive) | > 30 µM (inactive) | > 30 µM (inactive) | > 30 µM (inactive) | > 30 µM (inactive) | > 30 µM (inactive) | > 30 µM (inactive) | > 30 µM (inactive) |
| CN(C)C(=O)c1cc2cnc(Nc3ccc(N4CCNCC4)cn3)nc2n1C1CCCC1 [RIBOCICLIB] | > 30 µM (inactive) | > 30 µM (inactive) | > 30 µM (inactive) | > 30 µM (inactive) | > 30 µM (inactive) | > 30 µM (inactive) | > 30 µM (inactive) | > 30 µM (inactive) |
| COC(=O)N[C@@H](C)CNc1nccc(-c2cn(C(C)C)nc2-c2cc(Cl)cc(NS(C)(=O)=O)c2F)n1 [ENCORAFENIB] | > 30 µM (inactive) | > 30 µM (inactive) | > 30 µM (inactive) | > 30 µM (inactive) | > 30 µM (inactive) | > 30 µM (inactive) | > 30 µM (inactive) | > 30 µM (inactive) |
| C1=C/COCc2cc(ccc2OCCN2CCCC2)Nc2nccc(n2)-c2cccc(c2)COC/1 [PACRITINIB] | > 30 µM (inactive) | > 30 µM (inactive) | > 30 µM (inactive) | > 30 µM (inactive) | > 30 µM (inactive) | > 30 µM (inactive) | > 30 µM (inactive) | 9.33 µM (active) |
| COCCNCc1ccc(-c2cc3nccc(Oc4ccc(NC(=S)NC(=O)Cc5ccc(F)cc5)cc4F)c3s2)nc1 [GLESATINIB] | > 30 µM (inactive) | > 30 µM (inactive) | > 30 µM (inactive) | > 30 µM (inactive) | > 30 µM (inactive) | > 30 µM (inactive) | > 30 µM (inactive) | > 30 µM (inactive) |
| N[C@@H]1CCCN(c2c(/C=C3\SC(=O)NC3=O)cccc2-c2ccccc2)C1 | > 30 µM (inactive) | > 30 µM (inactive) | > 30 µM (inactive) | > 30 µM (inactive) | > 30 µM (inactive) | > 30 µM (inactive) | > 30 µM (inactive) | > 30 µM (inactive) |
| CNC(=O)CN1CCC(Oc2cc3c(Nc4cccc(Cl)c4F)ncnc3cc2OC)CC1 [SAPITINIB] | > 30 µM (inactive) | > 30 µM (inactive) | > 30 µM (inactive) | > 30 µM (inactive) | > 30 µM (inactive) | > 30 µM (inactive) | > 30 µM (inactive) | > 30 µM (inactive) |

Further lines, results first:

| Kd [1] | Kd [2] | Kd [3] | Kd [4] | Kd [5] | Kd [6] | Kd [7] | Kd [8] | Compound |
| --- | --- | --- | --- | --- | --- | --- | --- | --- |
| > 30 µM (inactive) | > 30 µM (inactive) | > 30 µM (inactive) | > 30 µM (inactive) | > 30 µM (inactive) | > 30 µM (inactive) | > 30 µM (inactive) | > 30 µM (inactive) | O=C1NC(=O)/C(=C/c2ccc3nccc(-c4ccncc4)c3c2)S1 [GSK-1059615] |
| > 30 µM (inactive) | > 30 µM (inactive) | > 30 µM (inactive) | > 30 µM (inactive) | > 30 µM (inactive) | > 30 µM (inactive) | > 30 µM (inactive) | > 30 µM (inactive) | CN1CCC(CNc2ccc3ncc(-c4cccc(OC(F)(F)F)c4)n3n2)CC1 [SGI-1776] |
| > 30 µM (inactive) | > 30 µM (inactive) | > 30 µM (inactive) | > 30 µM (inactive) | > 30 µM (inactive) | > 30 µM (inactive) | > 30 µM (inactive) | > 30 µM (inactive) | Cn1cc(-c2ccc3nnc(C(F)(F)c4ccc5ncccc5c4)n3n2)cn1 [JNJ-38877605] |
